± gives the standard deviation of the reports.
| glass transition temperature | SMILES |
| --- | --- |
| 146.00 °C | *Oc1ccc(Oc2ccc(C(=O)c3ccc(*)cc3)cc2)cc1-c1ccc(Oc2ccccc2)cc1 (repeat unit) |
| 280.00 °C | *C(=O)Nc1c(C)cc(Cc2cc(C)c(NC(=O)c3ccc4c(c3)C(=O)N(c3ccc(/N=N/c5ccc([N+](=O)[O-])cc5)c(N5C(=O)c6ccc(*)cc6C5=O)c3)C4=O)c(C)c2)cc1C (repeat unit) |
| 108.00 °C | *Oc1c(C)cc(-c2cc(C)c(OC(=O)CCCCC(*)=O)c(C)c2)cc1C (repeat unit) |
| 343.00 °C | *c1cc(N2C(=O)c3ccc(-c4ccc5c(c4)C(=O)N(*)C5=O)cc3C2=O)c(O)cc1O (repeat unit) |
| 89.00 °C | *Oc1ccc(C(c2ccc(OC(=O)c3ccc(OCCCCCCCCCCOc4ccc(C(*)=O)cc4)cc3)cc2)(C(F)(F)F)C(F)(F)F)cc1 (repeat unit) |
| 283.00 °C | *Oc1ccc(S(=O)(=O)c2ccc(Oc3ccc(NC(=O)c4cc(NC(=O)c5ccncc5)cc(C(=O)Nc5ccc(*)cc5)c4)cc3)cc2)cc1 (repeat unit) |
| 202.50 °C | *CC(*)(C)C(=O)OCCCCCc1ccc(/N=N/c2ccc(OC(F)(F)F)cc2)cc1 (repeat unit) |
| 60.80 °C | *CCOC(=O)NCCCCCCCCCCNC(=O)O* (repeat unit) |
| 30.00 °C | *CC(O)COC(=O)CCCCCCCCC(=O)OCC(O)COc1ccc(C(C)(C)c2ccc(O*)cc2)cc1 (repeat unit) |
| 37.00 °C | *CCCCCCCCCCCCOc1ccc(C(C)(C)c2ccc(OCOc3ccc(C(C)(C)c4ccc(O*)cc4)cc3)cc2)cc1 (repeat unit) |
| 342.00 °C | *c1ccc(Oc2ccc(N3C(=O)C4CCC5C(=O)N(*)C(=O)C5C4C3=O)cc2)cc1 (repeat unit) |
| 271.00 °C | *Nc1ccc(C(=O)c2ccc(NC(=O)c3cc(C(*)=O)cc(C(C)(C)C)c3)cc2)cc1 (repeat unit) |
| 346.00 °C | *c1ccc(-c2ccc(N3C(=O)c4ccc(-c5cccc6c5C(=O)N(*)C6=O)cc4C3=O)cc2C(F)(F)F)c(C(F)(F)F)c1 (repeat unit) |
| 236.00 °C | *C(=O)c1ccc2c(c1)C(=O)N(c1ccc(Oc3ccccc3Oc3ccc(N4C(=O)c5ccc(*)cc5C4=O)cc3C(F)(F)F)c(C(F)(F)F)c1)C2=O (repeat unit) |
| 225.00 °C | *OC(=O)NC1CCC(CC2CCC(NC(=O)OC3CC4CC(*)CC(C3)O4)CC2)CC1 (repeat unit) |
| 99.00 °C | *c1ccc(C(=O)OCCCCCCCCOc2ccc(/C=C3\CC/C(=C\c4ccc(OCCCCCCCCOC(=O)c5ccc(-c6nnc(*)o6)cc5)cc4)C3=O)cc2)cc1 (repeat unit) |
| 247.00 °C | *Oc1ccc(C2(c3ccc(OC(=O)c4ccc(C(*)=O)cc4)c(C)c3)CCC3CCCCC3C2)cc1C (repeat unit) |
| 257.00 °C | *c1ccc(Oc2ccc(C3(c4ccc(Oc5ccc(N6C(=O)c7ccc(Oc8ccc(C9(c%10ccc(Oc%11ccc%12c(c%11)C(=O)N(*)C%12=O)cc%10)CCC(C(C)(C)C)CC9)cc8)cc7C6=O)cc5)cc4)CC4CC3C3CCCC43)cc2)cc1 (repeat unit) |
| 30.00 °C | *CC(C)(C)CS(=O)(=O)CC(C)(C)COC(=O)NCCCCCCNC(=O)O* (repeat unit) |
| 88.00 °C | *CCCOC(=O)c1ccc2cc(C(=O)O*)ccc2c1 (repeat unit) |
| 319.00 °C | *c1ccc(Cc2ccc(N3C(=O)c4ccc(S(=O)(=O)c5ccc6c(c5)C(=O)N(*)C6=O)cc4C3=O)cc2)cc1 (repeat unit) |
| 81.00 °C | *c1ccc(-c2ccc3c(c2)C(CCCCCCCC)(CCCCCCCC)c2cc(*)ccc2-3)cc1 (repeat unit) |
| 315.00 °C | *C(=O)Nc1ccc(Oc2ccc(C3(c4ccc(Oc5ccc(NC(=O)c6ccc7c(c6)C(=O)N(c6ccc(C)c(N8C(=O)c9ccc(*)cc9C8=O)c6)C7=O)cc5)cc4)NC(=O)c4ccccc43)cc2)cc1 (repeat unit) |
| -17.00 °C | *CCCCCCOC(=O)OCCCCCCCCOC(=O)OCCCCCCOc1ccc(Oc2ccc(O*)cc2)cc1 (repeat unit) |
| -28.50 °C | *O[Si](C)(C)c1c(F)c(F)c(F)c([Si](*)(C)C)c1F (repeat unit) |
| 217.00 °C | *C(=O)c1ccc(Oc2ccc(C(C)(C)c3ccc(Oc4ccc(C(=O)c5ccc6c(c5)C(=O)N(c5ccc(Oc7ccc(N8C(=O)c9ccc(*)cc9C8=O)cc7)cc5)C6=O)cc4)cc3)cc2)cc1 (repeat unit) |
| 185.00 °C | *C(=O)Nc1cc(NC(=O)c2cncc(*)c2)cc(-c2nnc(-c3ccccn3)o2)c1 (repeat unit) |
| 265.00 °C | *c1ccc(Cc2ccc(N3C(=O)c4ccc(Sc5ccc6c(c5)C(=O)N(*)C6=O)cc4C3=O)cc2)cc1 (repeat unit) |

| glass transition temperature | SMILES |
| --- | --- |
| 92.00 °C | *CC(*)(C)C(=O)OCCOC(=O)c1cc([N+](=O)[O-])cc([N+](=O)[O-])c1 (repeat unit) |
| 76.00 °C | *OC(=O)C(Cc1ccccc1)NC(=O)CCCCCCCCCCC(=O)NC(Cc1ccccc1)C(=O)OC1COC2C(*)COC12 (repeat unit) |
| 206.00 ± 1.4 °C | *c1cccc(Oc2cccc(N3C(=O)c4ccc(Oc5ccc6c(c5)C(=O)N(*)C6=O)cc4C3=O)c2)c1 (repeat unit) |
| 138.00 °C | *Oc1ccc(-c2ccc(OC(=O)c3cc(CCCCC)cc(C(*)=O)c3)cc2)cc1 (repeat unit) |
| 57.21 °C | *CCCCCCC(=O)Oc1ccc(OC(=O)c2ccc3c(c2)C(=O)N(*)C3=O)c(C)c1 (repeat unit) |
| 1.00 °C | *c1ccc(-c2ccc(-c3ccc(-c4ccc([Si](*)(CCCC)CCCC)s4)s3)s2)s1 (repeat unit) |
| 191.00 °C | *C(=O)c1ccc2c(c1)C(=O)N(c1cccc(OCCOc3cccc(N4C(=O)c5ccc(*)cc5C4=O)c3)c1)C2=O (repeat unit) |
| -23.00 °C | *CC(*)c1ccc(COCC(CC)CCCC)cc1 (repeat unit) |
| 66.00 °C | *OC(=O)CNC(=O)CCCCCCCCC(=O)NCC(=O)OC1COC2C(*)COC12 (repeat unit) |
| 146.00 °C | *Oc1ccc(OC(=O)c2ccc(-c3ccc(C(*)=O)cc3)cc2-c2ccccc2)cc1C(C)(C)c1ccccc1 (repeat unit) |
| 38.00 °C | *O[Si](*)(C)CCCOc1ccc(C(=O)Oc2ccc(C(=O)Oc3ccc(OC)cc3)cc2)cc1 (repeat unit) |
| 17.00 °C | *NC(CCC(=O)OCc1ccccc1)C(*)=O (repeat unit) |
| -1.10 °C | *CCCCCCCCCOc1ccc(CCc2ccc(O*)cc2C)cc1 (repeat unit) |
| 353.00 °C | *c1cc(C)c(-c2c(C)cc(-n3c(=O)c4cc5c(=O)n(*)c(=O)c5cc4c3=O)cc2C)c(C)c1 (repeat unit) |
| 149.00 °C | *Oc1ccc(C(C)(c2ccccc2)c2ccc(OC(=O)OC3C(C)(C)C(OC(*)=O)C3(C)C)cc2)cc1 (repeat unit) |
| 60.00 °C | *CC#C/C(C#CCOC(=O)CCCCCCCCC(=O)O*)=C\c1ccc(C#Cc2ccccc2)cc1 (repeat unit) |
| 217.50 °C | *c1ccc(Oc2ccc(C(c3ccc(Oc4ccc(N5C(=O)c6ccc(Oc7ccc(Sc8ccc(Oc9ccc%10c(c9)C(=O)N(*)C%10=O)cc8)cc7)cc6C5=O)cc4)cc3)(C(F)(F)F)C(F)(F)F)cc2)cc1 (repeat unit) |
| 186.00 °C | *Oc1ccc(OC(=O)c2cccc(C(*)=O)c2)cc1 (repeat unit) |
| 84.00 °C | *Cc1cccc(CNC(=O)CCCCC(=O)N*)c1 (repeat unit) |
| 265.00 °C | *c1ccc(Oc2ccc(Oc3ccc(N4C(=O)c5ccc(-c6ccc7c(c6)C(=O)N(*)C7=O)cc5C4=O)cc3)c(C)c2)cc1 (repeat unit) |
| -80.00 °C | *O[Si](C)(C)O[Si](C)(C)O[Si](C)(C)O[Si](C)(C)O[Si](C)(C)c1ccc([Si](*)(C)C)cc1 (repeat unit) |
| 34.00 °C | */C=C/CC(C*)(C(=O)OC12CC3CC(CC(C3)C1)C2)C(=O)OC12CC3CC(CC(C3)C1)C2 (repeat unit) |
| 175.00 °C | *Oc1ccc(C(C)(c2ccccc2)c2ccc(Oc3c(F)c(F)c(C(=O)c4c(F)c(F)c(*)c(F)c4F)c(F)c3F)cc2)cc1 (repeat unit) |
| 102.00 °C | *OC(=O)C(NC(=O)CCCCC(=O)NC(C(=O)OC1COC2C(*)COC12)C(C)CC)C(C)CC (repeat unit) |
| 102.40 °C | *NNC(=O)/C=C/C(=O)NCCCCCCNC(=O)/C=C/C(*)=O (repeat unit) |
| 125.00 °C | *Oc1cccc(Oc2ccc(C(=O)c3ccc(*)cc3)cc2)c1 (repeat unit) |
| 280.00 °C | *c1ccc2c(c1)C(=O)N(c1c(C)cc(C)c(C(=O)c3cccc(N4C(=O)c5ccc(C(*)(C(F)(F)F)C(F)(F)F)cc5C4=O)c3)c1C)C2=O (repeat unit) |

| SMILES | glass transition temperature |
| --- | --- |
| *[Si](*)(C)CCC(F)(F)F (repeat unit) | -3.00 °C |
| *CC(*)C(=O)OC(Cl)C(Cl)(Cl)Cl (repeat unit) | 70.50 °C |
| *CC(*)OC(C)=O (repeat unit) [poly(vinyl acetate)] | 40.92 ± 13 °C |
| *CC(*)(CCCCC)C(=O)OC (repeat unit) | 53.00 °C |
| */C=C/C1CC(*)C(C#N)(C[Si](C)(C)C)C1 (repeat unit) | 128.00 °C |
| *CC(*)(C)C(=O)OCCOCCO (repeat unit) | 20.00 °C |
| *C1c2cccc3cccc(c23)C1* (repeat unit) | 250.00 °C |
| *c1cc(CCCCBr)c(*)s1 (repeat unit) | 19.00 °C |
| *CC(*)C(=O)c1ccc(Br)cc1 (repeat unit) | 101.50 °C |
| *CC(*)(C)C(=O)OCC1CO1 (repeat unit) | 68.50 °C |
| *CC(*)c1ccc(CC)cc1 (repeat unit) | 71.40 °C |
| *CC/C=C/C[Si](*)(C)c1ccccc1 (repeat unit) | -14.90 °C |
